The values below come from PMC3529809 (Steroids, 2012).

SMILES strings stand for the structures. “Also recorded” adds a separate entry of the source.

The target in assay [1] is T1, human ERβ (Homo sapiens, UniProt Q92731). The experiment in a line: ERELUC transient transfection reporter assay, ERβ in HepG2 cells. Type of assay: cell-based. To be noted: 5 µM, 24 h, Fig. 1B; result in words.
In assay [2] the target is hERα (Homo sapiens, UniProt P03372). The experiment in a line: ERELUC transient transfection reporter assay, ERα in HEK-293 cells. The format is cell-based. To be noted: HEK-293; result in words.
For assay [3], the system named is ERβ. To be noted: 50 µM, COS cells; cited from earlier work.
Assay [4] relates to ERα. To be noted: 50 µM, COS cells; cited from earlier work.
The subject of assay [5] is TFF1 (pS2), PGR (PR), CTSD (cathepsin D) transcription. The experiment in a line: QRT-PCR of endogenous ER-target genes in ERα-transfected HEK-293 cells. To be noted: 10 nM E2 or 5 µM sterol, 24 h, Fig. 5A. Type of assay: cell-based, human.
In assay [6] the test system is NRF1 (NRF-1) expression. The experiment in a line: QRT-PCR of NRF1 in ERβ-transfected HepG2 cells. Type of assay: cell-based, human. To be noted: 10 nM E2 or 5 µM sterol, 24 h, Fig. 5B.
In assay [7] the test system is diethylnitrosamine-induced hepatic tumors. To be noted: 0.6% in the diet, rats; cited from earlier work.
The target of assay [8] is ERβ. To be noted: expressed in COS-1 cells, cited from earlier work.
Assay [9] concerns NMU and DMBA induced tumors of the mammary gland. To be noted: oral, rats; cited from earlier work.
The subject of assay [10] is ERα+ MCF-7 and triple-negative MDA-MB-231 and Hs578T breast cancer cells. To be noted: 100 µM; cited from earlier work.
Assay [11] has as its target T1, human ERβ. The assay is described as follows: [3H] E2 ligand binding competition. To be noted: IC50 for ERβ, competition with 30 nM [3H] E2, Fig. 6B.
The subject of assay [12] is MCF-7 human breast cancer cells. The assay is described as follows: Cell proliferation BrdU assay. Type of assay: cell-based. To be noted: 48 h BrdU; 10 nM E2, 5 µM sterols; Fig. 7.
Assay [13] has as its system ZR-75-1 breast cancer xenografts. To be noted: twice daily s.c. injections of 0.3 mg, nude mice; cited from earlier work.
For assay [14], the system named is MCF-7 cells. To be noted: cited from earlier work.

T1 sequence (Q92731 whole entry): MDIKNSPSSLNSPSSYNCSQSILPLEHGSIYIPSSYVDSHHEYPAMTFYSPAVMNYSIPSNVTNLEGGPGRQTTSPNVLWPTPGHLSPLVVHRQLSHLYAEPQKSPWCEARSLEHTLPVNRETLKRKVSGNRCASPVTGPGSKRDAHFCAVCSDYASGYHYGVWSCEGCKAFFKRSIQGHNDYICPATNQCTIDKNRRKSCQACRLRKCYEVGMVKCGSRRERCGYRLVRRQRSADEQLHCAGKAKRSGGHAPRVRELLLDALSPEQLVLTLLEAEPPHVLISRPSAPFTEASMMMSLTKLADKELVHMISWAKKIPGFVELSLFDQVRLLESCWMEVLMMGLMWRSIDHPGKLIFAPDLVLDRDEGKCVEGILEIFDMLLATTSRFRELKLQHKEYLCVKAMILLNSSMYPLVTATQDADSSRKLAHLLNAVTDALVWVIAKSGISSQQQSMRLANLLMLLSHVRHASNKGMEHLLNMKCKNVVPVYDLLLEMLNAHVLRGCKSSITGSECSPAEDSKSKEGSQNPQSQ
Chain of hERα (P03372 whole entry): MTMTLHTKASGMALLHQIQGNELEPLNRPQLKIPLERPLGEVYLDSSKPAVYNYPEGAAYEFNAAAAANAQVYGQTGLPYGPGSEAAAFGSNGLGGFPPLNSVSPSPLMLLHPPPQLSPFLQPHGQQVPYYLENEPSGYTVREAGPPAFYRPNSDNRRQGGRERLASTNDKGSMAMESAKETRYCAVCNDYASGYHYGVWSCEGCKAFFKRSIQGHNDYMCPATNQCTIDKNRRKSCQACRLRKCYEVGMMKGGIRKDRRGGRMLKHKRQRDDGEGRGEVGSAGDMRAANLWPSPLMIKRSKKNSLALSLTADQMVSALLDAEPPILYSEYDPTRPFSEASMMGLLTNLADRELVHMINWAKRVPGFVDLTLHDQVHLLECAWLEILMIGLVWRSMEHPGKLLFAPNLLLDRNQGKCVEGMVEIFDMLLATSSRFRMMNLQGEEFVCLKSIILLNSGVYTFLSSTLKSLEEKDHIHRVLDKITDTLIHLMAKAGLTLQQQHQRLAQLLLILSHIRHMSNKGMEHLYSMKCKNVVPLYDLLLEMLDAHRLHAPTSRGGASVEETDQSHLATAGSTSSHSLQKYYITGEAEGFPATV

With `C[C@]12CC[C@H](O)CC1=C[C@@H](O)[C@@H]1[C@@H]2CC[C@]2(C)C(=O)CC[C@@H]12` [7α-OH-DHEA, 7α-hydroxy-DHEA], in [1], the “ERELUC activity in ERβ-expressing HepG2 cells” value was “increased”. Moreover, in assay [2], the “ERα agonist activity in ERELUC assay” value is recorded as “lack of ERα activity”. In assay [3], the “ERE-TK-luciferase reporter activity, ERβ” value was “stimulated activity”. For the same molecule, in [4], the “ERE-TK-luciferase reporter activity, ERα” value is “stimulated activity”. Further, in assay [5], the “CTSD (cathepsin D) expression” value was “no induction”, the “PGR (PR) expression” value is reported as “no induction” and the “TFF1 (pS2) expression” value is “no induction”. Besides, in assay [6], the “NRF-1 mRNA expression” value is recorded as “low induction”. Besides, the “NRF-1 mRNA expression” value in assay [6] (listed as α-OH-DHEA) is reported as “statistically significant increase”.

In the case of `C[C@]12CC[C@H](O)CC1=CC[C@@H]1[C@@H]2CC[C@]2(C)C(=O)CC[C@@H]12` [DHEA, 3β-hydroxy-androst-5-ene-17-one], in [1], the “ERELUC activity in ERβ-expressing HepG2 cells” value is listed as “significantly induced”. Also, the tumor cell growth entry in assay [7] is given as “inhibited tumor cell growth”. Besides, in assay [8] (read-out: Kd for ERβ), the Kd (commonly the concentration at which binding is half-saturated) is around 500 nM. Besides, the Ki (usually a measure of affinity in units of concentration, obtained from inhibition or displacement) in assay [8] (read-out: Ki for ERβ) was around 500 nM. For the same molecule, in [5], the “CTSD (cathepsin D) expression” value is listed as “increased”, the “PGR (PR) expression” value is “increased” and the “TFF1 (pS2) expression” value was “increased”. Besides, in [9], the “effect in the mammary gland after chemical induction of tumors” value is “anti-carcinogenic effects”. For the same molecule, in assay [10], the “proliferation, cell cycle progression and migration” value is listed as “inhibit”. In [11], the IC50 (as a rule, the concentration at which inhibition is half-maximal) came to 500000 nM. The MCF-7 cell proliferation result in assay [12] is listed as “increased”. In assay [13], the “estrone-stimulated growth of xenografts” value was “suppressed”. Moreover, the “NRF-1 mRNA expression” value in assay [6] is recorded as “statistically significant increase; also recorded: low induction”. The “proliferation of MCF-7 cells” value in assay [14] (1–10 µM concentrations) is recorded as “stimulated proliferation”. The MCF-7 cell growth result in assay [14] (DHEA 0.5 µM, ADIOL 2 nM) is recorded as “stimulated”. Also, in assay [14] (less than E2), the MCF-7 cell proliferation result is on record as “increased cell proliferation”.
